# Measured values from EP4818187A1, “COMPOUND AND USE THEREOF” (Ganzhou Hemay Pharmaceutical, Co., Ltd, priority 2023, dated 2025).
# Experiments:
# [1] = tested on: Fadu (human pharyngeal squamous cell carcinoma); assay: In vitro inhibitory effect against human tumor cells (MTT); assay type: cell-based; conditions: 72 h, 3 days
# Procedure: (§1) Cells were cultured with 5% CO2 at 37°C and saturated humidity until they reached a logarithmic growth phase (usually adherent cells were nearly fully confluent). After removing adherent cells by trypsin/EDTA digestion, the cells were collected for subsequent experiments.
# (§2) The cells were inoculated into a 96-well cell culture plate (hereinafter referred to as the 96-well plate) based on the cell count shown in Table 2, cultured overnight to achieve cell adherence, and then, after different concentrations of the test compound were added, further cultured for a total of 3 days. Finally, the total cell protein in the assay wells was assayed by SRB, or the cell viability was assessed by MTT:
# (§3) 2.2 Assaying cell viability by MTT: the modification is based on the method in the literature (J. Carmichael, W. DeGraff, A. Gazdar et al., Evaluation of a tetrazolium-based semiautomated colorimetric assay: assessment of chemosensitivity testing. Cancer Research. 1987, 47: 936-942). Specific method: For well-adherent cells: the medium was pipetted out, 100 µL of a basal medium containing 0.5 mg/mL MTT (medium free of fetal bovine serum (FBS) and other additives) was added to each well, and culture was continued for additional 3 h. The MTT-containing basal medium was pipetted out, and 100 µL of DMSO was added to each well to dissolve formazan, followed by assay at a wavelength of 490 nm.
# (§4) For poorly-adherent cells: MTT solution was directly added to a concentration of 0.5 mg/mL, culture was continued for additional 3 h, and an equal volume of triple solvent was added to the system to dissolve formazan, followed by assay at a wavelength of 570 nm.
# (§5) 2.3: 1-2 mg of β-glucuronidase was weighed, and dissolved in PBS to prepare 2 mg/mL stock solution. Prior to use, the stock solution was diluted with a complete medium to prepare 12.5 µg/mL enzyme working solution. For assay wells requiring the enzyme, 80 µL of the enzyme working solution was added, with the β-glucuronidase at a concentration of 1 µg/well; and for assay wells not requiring the enzyme, 80 µL of the complete medium was added.
# (§6) 1-3 mg of the test compound was weighed, and dissolved in DMSO to prepare 20 mM stock solution. The stock solution was diluted in a 3-fold gradient with DMSO, then diluted 100-fold with RPMI1640 basal medium to obtain 10× working solutions, with a total of 8 concentrations. 20 µL of the 10× working solutions were add to the assay wells, with the final volume of each well of 200 µL, and with the DMSO at a concentration of 0.1%.
# (§7) 2.4 Calculation of inhibitory activity of compound: the experiment includes a compound test group, a compound-free positive solvent control group (PC), and a negative solvent control group (NC) without cells and the compound. Inhibition rate = [1−(testvalue−NCmean)/(PCmean−NCmean)] × 100% [formula]
# (§8) The mean and SD of the inhibition rate were obtained from replicate assay wells. A curve was plotted with the compound concentrations distributed in a logarithmic form as the abscissa and with the mean inhibition rates as the ordinate, and was fitted with a 4-parameter logistic equation. The compound concentration corresponding to 50% inhibition rate on the curve is the IC50 value. Table 2: Culture medium formulation and cell inoculation concentration for human tumor cell lines
# [2] = tested on: HCT116 (human colorectal cancer); assay: as above; assay type: cell-based; conditions: HCT-116, 72 h, 3 days
# Procedure: as §1, §2, §3, §4, §5, §6, §7, §8
# [3] = tested on: NCI-H1975 (human non-small cell lung cancer); assay: as above; assay type: cell-based; conditions: NCI-H1975, 72 h, 3 days
# Procedure: as §1, §2, §3, §4, §5, §6, §7, §8
# [4] = tested on: SK-OV-3 (human ovarian cancer); assay: as above; assay type: cell-based; conditions: SK-OV-3, 72 h, SK-OV-3, MTT, 3 days
# Procedure: as §1, §2, §3, §4, §5, §6, §7, §8
# [5] = tested on: 22RV1 (human prostate cancer); assay: In vitro inhibitory effect against human tumor cells (SRB); assay type: cell-based; conditions: 22Rv1, 72 h, 22RV1, SRB, 3 days
# Procedure: as §1, §2
# (§9) 2.1 Assaying total cell protein by SRB: the modification is based on the method in the literature (V. Vichai and K. Kirtikara. Sulforhodamine B colorimetric assay for cytotoxicity screening. Nature Protocols. 2006, 1: 1112-1116). Specific method: the culture medium was pipetted out from the wells, the cells were fixed with 10% trichloroacetic acid for more than 1 h, and trichloroacetic acid was removed; the cells were washed with H2O, and stained with 0.4% SRB for 15-30 min; after excess SRB was removed, the cells were washed with 1% acetic acid; 100 µl of 10 mM tris(trihydroxymethylaminomethane) was added to dissolve the protein-bound SRB, followed by assay at a wavelength of 570 nm.
# as §5, §6, §7, §8
# [6] = tested on: A375 (human malignant melanoma); assay: as above; assay type: cell-based; conditions: A-375, 72 h, 3 days
# Procedure: as §1, §2, §9, §5, §6, §7, §8
# [7] = tested on: HepG2 (human liver cancer cell); assay: as above; assay type: cell-based; conditions: HepG2, 72 h, 3 days
# Procedure: as §1, §2, §9, §5, §6, §7, §8
# [8] = tested on: BxPC-3 (human pancreatic cancer in situ); assay: In vitro inhibitory effect against human tumor cells (MTT or SRB); assay type: cell-based; conditions: BXPC-3, 72 h, BxPC-3, test method printed MTT (head: SRB), 3 days
# Procedure: as §1, §2, §9, §3, §4, §5, §6, §7, §8
# [9] = tested on: human ovarian cancer SK-OV-3; assay: Biological Example 5: in vivo xenograft model of human ovarian cancer SK-OV-3; set-up: species or system Balb/c-nu nude mice; conditions: SK-OV-3 xenograft, nude mice, 0.8 mg/kg i.v. qw×3
# [10] = tested on: human non-small cell lung cancer NCI-H1975; assay: Biological Example 7: in vivo xenograft model of human non-small cell lung cancer NCI-H1975; set-up: species or system Balb/c-nu nude mice; conditions: nude mice; for Final body weight change (%) / Maximum body weight change (%) / Relative volume RTV (x±S.D.) / T/C (%) / Tumor inhibition rate (%) / Tumor weight (g, x±S.D.): 0.8 mg/kg i.v. qw×3; for Body weight (g, x±S.D.) End: 0.8 mg/kg i.v. qw×3, End; for Body weight (g, x±S.D.) Start: 0.8 mg/kg i.v. qw×3, Start
# [11] = tested on: human non-small cell lung cancer NCI-H1975; assay: Biological Example 10: in vivo xenograft model of human non-small cell lung cancer NCI-H1975; set-up: species or system Balb/c-nu nude mice; conditions: nude mice; for Final body weight change (%) / Maximum body weight change (%) / Relative volume RTV (x±S.D.) / T/C (%) / Tumor inhibition rate (%) / Tumor weight (g, x±S.D.): 0.4 mg/kg i.v. qw×2; for Body weight (g, x±S.D.) End 24d: 0.4 mg/kg i.v. qw×2, End 24d; for Body weight (g, x±S.D.) Start: 0.4 mg/kg i.v. qw×2, Start
# [12] = With addition of βGU (1 µg/well)
Compound,"IC50 [1, 12]",IC50 ([1]; βGU-free),"IC50 [2, 12]",IC50 ([2]; βGU-free),"IC50 [3, 12]",IC50 ([3]; βGU-free),"IC50 [4, 12]",IC50 ([4]; βGU-free),"IC50 [5, 12]",IC50 ([5]; βGU-free),"IC50 [6, 12]",IC50 ([6]; βGU-free),"IC50 [7, 12]",IC50 ([7]; βGU-free),"IC50 [8, 12]",IC50 ([8]; βGU-free),Final body weight change (%) [9],Maximum body weight change (%) [9],Relative volume RTV (x±S.D.) [9],T/C (%) [9],other results
CC[C@H](C)[C@@H]([C@@H](CC(=O)N1CCC[C@H]1[C@H](OC)[C@@H](C)C(=O)N[C@H](C)[C@@H](O)c1ccccc1)OC)N(C)C(=O)[C@@H](NC(=O)[C@H](C(C)C)[N+](C)(C)Cc1ccc(O[C@@H]2O[C@H](C(=O)[O-])[C@@H](O)[C@H](O)[C@H]2O)cc1OCc1cn(CCCOCC(=O)Nc2ccc(-c3ccc(/N=N/c4ccc5c(S(=O)(=O)[O-])cc(S(=O)(=O)[O-])c(N)c5c4O)c(C)c3)cc2C)nn1)C(C)C.[Na+].[Na+] [Example compound 10],0.64 nM,14 nM,3.4 nM,87 nM,1.9 nM,50 nM,2.7 nM,74 nM,4.4 nM,94 nM,1.4 nM,33 nM,4.1 nM,93 nM,0.71 nM,29 nM,4.3%,"4.4, d18%",0.37±0.73,3.2%,"Tumor inhibition rate (%) [9]: 97.9%; Tumor weight (g, x±S.D.) [9]: 0.035 ± 0.077 g; Body weight (g, x±S.D.) End [9]: 24.7 ± 0.9 g; Body weight (g, x±S.D.) Start [9]: 23.7 ± 1.1 g; Final body weight change (%) [10]: 10.2%; Maximum body weight change (%) [10]: 10.2, d21%; Relative volume RTV (x±S.D.) [10]: 0.66±0.23; T/C (%) [10]: 4.6%; Tumor inhibition rate (%) [10]: 97.7%; Tumor weight (g, x±S.D.) [10]: 0.041 ± 0.022 g; Body weight (g, x±S.D.) End [10]: 26.0 ± 1.0 g; Body weight (g, x±S.D.) Start [10]: 23.7 ± 1.3 g; Final body weight change (%) [11]: 4.6%; Maximum body weight change (%) [11]: 4.6, d28%; Relative volume RTV (x±S.D.) [11]: 0.26±0.02; T/C (%) [11]: 5.2%; Tumor inhibition rate (%) [11]: 95.7%; Tumor weight (g, x±S.D.) [11]: 0.047 ± 0.020 g; Body weight (g, x±S.D.) End 24d [11]: 22.9 ± 0.8 g; Body weight (g, x±S.D.) Start [11]: 21.9 ± 1.3 g"
CC[C@H](C)[C@@H]([C@@H](CC(=O)N1CCC[C@H]1[C@H](OC)[C@@H](C)C(=O)N[C@H](C)[C@@H](O)c1ccccc1)OC)N(C)C(=O)[C@@H](NC(=O)[C@H](C(C)C)[N+](C)(CC)Cc1ccc(O[C@@H]2O[C@H](C(=O)[O-])[C@@H](O)[C@H](O)[C@H]2O)cc1OCc1cn(CCCCCC(=O)Nc2ccc(-c3ccc(/N=N/c4ccc5c(S(=O)(=O)[O-])cc(S(=O)(=O)[O-])c(N)c5c4O)c(C)c3)cc2C)nn1)C(C)C.[Na+].[Na+] (stereo partly shown) [Example compound 12],0.21 nM,36 nM,1.6 nM,84 nM,1.2 nM,74 nM,1.1 nM,37 nM,2.5 nM,77 nM,1 nM,50 nM,3 nM,106 nM,0.53 nM,28 nM,4.4%,"4.4, d21%",0.07±0.04,0.6%,"Tumor inhibition rate (%) [9]: 99.7%; Tumor weight (g, x±S.D.) [9]: 0.005 ± 0.001 g; Body weight (g, x±S.D.) End [9]: 25.1 ± 1.4 g; Body weight (g, x±S.D.) Start [9]: 24.1 ± 1.2 g; Final body weight change (%) [10]: 5.8%; Maximum body weight change (%) [10]: 5.8, d21%; Relative volume RTV (x±S.D.) [10]: 0.46±0.35; T/C (%) [10]: 3.2%; Tumor inhibition rate (%) [10]: 97.8%; Tumor weight (g, x±S.D.) [10]: 0.039 ± 0.039 g; Body weight (g, x±S.D.) End [10]: 25.6 ± 2.4 g; Body weight (g, x±S.D.) Start [10]: 24.1 ± 1.6 g; Final body weight change (%) [11]: 5.7%; Maximum body weight change (%) [11]: 5.7, d28%; Relative volume RTV (x±S.D.) [11]: 0.44±0.06; T/C (%) [11]: 8.8%; Tumor inhibition rate (%) [11]: 92.1%; Tumor weight (g, x±S.D.) [11]: 0.086 ± 0.009 g; Body weight (g, x±S.D.) End 24d [11]: 23.1 ± 0.7 g; Body weight (g, x±S.D.) Start [11]: 21.8 ± 0.6 g"
CC[C@H](C)[C@@H]([C@@H](CC(=O)N1CCC[C@H]1[C@H](OC)[C@@H](C)C(=O)N[C@H](C)[C@@H](O)c1ccccc1)OC)N(C)C(=O)[C@@H](NC(=O)[C@H](C(C)C)[N+](C)(CC)Cc1ccc(O[C@@H]2O[C@H](C(=O)[O-])[C@@H](O)[C@H](O)[C@H]2O)cc1OCc1cn(CCCOCC(=O)Nc2ccc(-c3ccc(/N=N/c4ccc5c(S(=O)(=O)[O-])cc(S(=O)(=O)[O-])c(N)c5c4O)c(C)c3)cc2C)nn1)C(C)C.[Na+].[Na+] (stereo partly shown) [Example compound 11],0.61 nM,21 nM,1.1 nM,55 nM,1.7 nM,64 nM,1.7 nM,77 nM,2.2 nM,63 nM,1.6 nM,45 nM,3 nM,66 nM,0.4 nM,15 nM,5.7%,"5.7, d21%",0.19±0.23,1.7%,"Tumor inhibition rate (%) [9]: 99.3%; Tumor weight (g, x±S.D.) [9]: 0.011 ± 0.013 g; Body weight (g, x±S.D.) End [9]: 25.7 ± 0.8 g; Body weight (g, x±S.D.) Start [9]: 24.4 ± 0.9 g; Final body weight change (%) [10]: 6.7%; Maximum body weight change (%) [10]: 6.7, d21%; Relative volume RTV (x±S.D.) [10]: 0.74±0.51; T/C (%) [10]: 5.2%; Tumor inhibition rate (%) [10]: 96.6%; Tumor weight (g, x±S.D.) [10]: 0.061 ± 0.049 g; Body weight (g, x±S.D.) End [10]: 27.0 ± 2.2 g; Body weight (g, x±S.D.) Start [10]: 25.3 ± 1.6 g"
